Experiment [1] relates to primary breast tumor epithelial cells isolated from breast cancer tissues (HMFL-XN1, HMFL-XN3, HMFL-XN4, HMFL-XN6, HMFL-XN8). Description: Optimization of primary breast epithelial cell culture medium: cell count after culture with medium additives. Type of experiment: cell-based, human. Also noted: key: +: compared with the basis medium, the medium added with the additive(s) can promote the proliferation of primary breast tumor epithelial cells isolated from at least three cases of breast cancer tissues; −: the medium added with the additive(s) has the effect of inhibiting proliferation of primary breast tumor epithelial cells isolated from at least two cases of breast cancer tissues; ○: the medium added with this additive(s) has no significant effect on the proliferation of primary breast tumor epithelial cells isolated from at least three cases of breast cancer tissues. The method, then: Matrigel (registered trademark) (manufactured by BD Biosciences) was diluted at 1:100 in serum-free DMEM/F12 medium to prepare an extracellular matrix dilution, which was added to a 48-well culture plate with 200 μl/well to completely cover the bottom of the wells of the culture plate. The resultant was let stand for 1 hour in a 37° C. incubator. After 1 hour, the extracellular matrix dilution was removed to provide a Matrigel-coated plate.
First, a basis medium was prepared. To a commercial DMEM/F-12 medium, GlutaMAX-I (manufactured by Thermo Fisher SCIENTIFIC) was added at the specified concentration (1:100 dilution), human insulin (manufactured by Sigma) was added at a final concentration of 10 μg/ml, ROCK kinase inhibitor Y27632 (manufactured by Sigma) was added at a final concentration of 10 μM, and penicillin-streptomycin (manufactured by Thermo Fisher SCIENTIFIC) was added at a 1:100 dilution ratio, which provides the basis medium.
Next, different types of additives (as shown in Table 1) were added to the basis medium to prepare breast epithelial cell culture mediums containing different supplementary components, and the mediums with different components were added at a volume of 500 μl/well to 48-well plates which were coated with extracellular matrix gel (Matrigel). Breast tumor cells (HMFL-XN1) isolated from breast cancer tissue in step (1) of this Example were inoculated in a Matrigel-coated 48-well culture plate at a cell density of 1×10^4 cells/well, and equal numbers of freshly isolated breast tumor cells (HMFL-XN1) were cultured under different medium formulations at 37° C., under 5% CO2 concentration and 20% oxygen concentration. The medium was renewed every 4 days after the start of the culture. After 10 days of culture, cell counts were performed. As an experiment control, the basis medium without any additives was used. Breast tumor cells isolated from the remaining four breast cancer tissue samples were cultured and counted in the same manner as above.

Experiment [2] concerns breast tumor cells (HMFL-XN29). Description: Drug sensitivity functional test, Cell Titer-Glo cell viability. Format: cell-based, human. To be noted: HMFL-XN29, triple-negative patient; 72 hours after administration. Here is the method: (§1) 1. Plating of primary breast tumor cells: the single cell suspension of breast tumor cells (HMFL-XN5, HMFL-XN7, HMFL-XN10, HMFL-XN12, and HMFL-XN29) obtained by the same method of the invention according to step (3) of Example 4, was inoculated at a density of 3000-5000 cells/well in a 384-well plate, and the cells were adhered overnight.
(1) The drug storage plates were prepared by gradient dilution method: 10 μL of the drug stock solutions to be tested (the concentration of the drug stock solution was determined based on 2 times of the maximum blood concentration Cmax of the drug in the human body) were respectively taken, and added to 0.5 mL EP tubes containing 20 μL of DMSO; 10 μL of solutions from the above EP tubes were pipetted into second 0.5 mL EP tubes loaded with 20 μL of DMSO, that is, diluting the drugs in a ratio of 1:3. […]
(§2) (3) Test of cell viability: 72 hours after administration, Cell Titer-Glo assay kit (manufactured by Promega) was used to detect the chemiluminescence value of the cultured cells after drug administration. […] The prepared Cell Titer-Glo detection solution was added to each well, and a microplate reader was used to detect the chemiluminescence value after mixing.
(§3) Graphs were made by using Graphpad Prism 7.0 software and the half-inhibition rate IC50 was calculated.
On the technique in general: Cellular ATP, detected with luciferase, serves as a proxy for viable cell number.

The test system of experiment [3] is breast tumor cells (HMFL-XN7). The description is as above. Type of experiment: cell-based. To be noted: Homo sapiens; HMFL-XN7, hormone receptor-positive, HER2 receptor-negative patient; 72 hours after administration; read-out: half-inhibition rate IC50. The method, then:
as §1
(§4) (1) The drug storage plates were prepared by gradient dilution method: 10 μL of the drug stock solutions to be tested (the concentration of the drug stock solution was determined based on 2 times of the maximum blood concentration Cmax of the drug in the human body) were respectively taken, and added to 0.5 mL EP tubes containing 20 μL of DMSO; 10 μL of solutions from the above EP tubes were pipetted into second 0.5 mL EP tubes loaded with 20 μL of DMSO, that is, diluting the drugs in a ratio of 1:3. The above method was repeated for gradually dilution and 7 concentrations required for dosing were obtained. Different concentrations of drugs were added to the 384-well drug storage plates. Equal volume of DMSO was added to each well of the solvent control group as a control. In this example, the drugs to be tested were epirubicin (manufactured by MCE), lapatinib (manufactured by MCE), docetaxel (manufactured by MCE), and tamoxifen (manufactured by MCE).
(§5) (2) Using a high-throughput automated workstation (purchased from Perkin Elmer), different concentrations of drugs and solvent controls in the 384-well drug storage plates were added to 384-well cell culture plates plated with the breast tumor cells. […]
as §2, §3

Experiment [4] deals with breast tumor cells (HMFL-XN12). The description is as above. The following applies: Homo sapiens; HMFL-XN12, HER2-positive patient; 72 hours after administration; read-out: half-inhibitory amount (IC50). Type of experiment: cell-based. Here is the method:
as §1, §4, §5, §2, §3

The mark [5] stands for this setting: additive at the concentration given in Table 1 added to basis medium, cell count after 10 days of culture, compared with basis medium, five breast cancer samples.

The source of these data is patent US20220389379A1, “PRIMARY BREAST EPITHELIAL CELL CULTURE MEDIUM, CULTURE METHOD AND USE THEREOF” (PRECEDO PHARMACEUTICALS CO., LTD, priority 2019, published 2022).

pIC50: −log10 of the molar value. Read-outs that look alike come from different tables or passages of the source.

For the compound Interleukin 6: medium additive (R&D), in experiment [1] (setting [5]), the Degree of cell result is “−”.

On to `CC(=O)N[C@@H](CS)C(=O)O` [N-Acetyl Cysteine, reference compound], for which, in experiment [1] (setting [5]), the Degree of cell result is on record as “−”. For “Basic fibroblast growth factor: medium additive (R&D)”, in experiment [1] (setting [5]), the Degree of cell result is recorded as “+”. On the same count and under the same terms, the same measure for `Cc1ccc2c(c1)C(=O)C1(O)CCN(c3ccccc3)C1=N2` (centres unmarked) [Blebbistatin, reference compound]: “−”.

As a reminder, the pIC50 is the negative decadic logarithm of the IC50, by convention in mol/L. Regarding `CC/C(=C(\c1ccccc1)c1ccc(OCCN(C)C)cc1)c1ccccc1` [tamoxifen], in experiment [2], the “drug sensitivity compared with breast tumor cells from other patients” value was “less sensitive”. The pIC50 in experiment [3] was 6.01.

Turning to `Cc1cccc(-c2nn(C(=S)Nc3ccccc3)cc2-c2ccnc3ccccc23)n1` [A8301, reference compound], in experiment [1] (setting [5]), the Degree of cell result is given as “+”. Take `NC(=O)c1cccnc1` [Nicotinamide, reference compound]: in experiment [1] (setting [5]), the Degree of cell entry was “−”. With `Oc1ccc(-c2nc(-c3ccncc3)c(-c3ccc(F)cc3)[nH]2)cc1` [SB202190, reference compound], the Degree of cell entry in experiment [1] (setting [5]) was “+”. Still for that read-out and setting: the same measure for Neuregulin 1: “+”; for `CCCCC[C@H](O)/C=C/[C@H]1[C@H](O)CC(=O)[C@@H]1C/C=C\CCCC(=O)O` [Prostaglandin E2, reference compound]: “−”. For the compound Cholera toxin, the Degree of cell entry in experiment [1] is listed as “○”. Regarding “Human leukemia inhibitory factor: medium additive (Peprotech)”, in experiment [1] (setting [5]), the Degree of cell result is “−”. As to `N[C@@H](Cc1cc(I)c(Oc2ccc(O)c(I)c2)c(I)c1)C(=O)O` [Triiodothyronine, reference compound], the Degree of cell entry in experiment [1] (setting [5]) was “○”. Take “Hepatocyte growth factor: medium additive (Peprotech)”: the Degree of cell result in experiment [1] (setting [5]) was “+”. For `CS(=O)(=O)CCNCc1ccc(-c2ccc3ncnc(Nc4ccc(OCc5cccc(F)c5)c(Cl)c4)c3c2)o1` [lapatinib], the “drug sensitivity compared with breast tumor cells from other patients” value in experiment [2] is “less sensitive”. In addition, the pIC50 in experiment [3] is 5.60; in experiment [4] it was 6.04. Turning to “Epidermal growth factor: epidermal growth factor (EGF), medium additive (NSDSECPLSHDGYCLHDGVCMYIEALDKYACNCVVGYIGERCQYRDLKWWELR; UniProt P01133 971-1023, looked up)”, the Degree of cell entry in experiment [1] (setting [5]) was “+”. The same measure, in the same setting: under “Insulin growth factor1: medium additive (Peprotech)” stands “+”.
